According to patent US11229618B2 (Amarin Pharmaceuticals Ireland Limited, priority 2012, dated 2022):

Assay: ANCHOR: RBC fatty acid concentrations, ratios and class proportions (GC/FID)
Format: in vivo, human
Parameters: DHA RBC End-of-treatment / DHA RBC Change from baseline / DPAn-3 RBC End-of-treatment / DPAn-3 RBC Change from baseline / AA RBC End-of-treatment / AA RBC Change from baseline / Stearic RBC End-of-treatment / Stearic RBC Change from baseline / Oleic RBC End-of-treatment / Oleic RBC Change from baseline / Linoleic RBC End-of-treatment / Linoleic RBC Change from baseline: unit not given here
Settings: for AA RBC Placebo-adjusted percent change from baseline / DHA RBC Placebo-adjusted percent change from baseline / DPAn-3 RBC Placebo-adjusted percent change from baseline / Linoleic RBC Placebo-adjusted percent change from baseline / Oleic RBC Placebo-adjusted percent change from baseline / Palmitic RBC Placebo-adjusted percent change from baseline / Ratio of AA/EPA RBC Placebo-adjusted percent change from baseline / Ratio of total ω-3/total ω-6 RBC Placebo-adjusted percent change from baseline / Stearic RBC Placebo-adjusted percent change from baseline: week 12, LS mean; for Monounsaturated, proportion of total fatty acids, RBCs, Change from baseline / Saturated, proportion of total fatty acids, RBCs, Change from baseline / Total ω-3, proportion of total fatty acids, RBCs, Change from baseline / Total ω-6, proportion of total fatty acids, RBCs, Change from baseline: LS mean (SE); for AA RBC End-of-treatment / DHA RBC End-of-treatment / DPAn-3 RBC End-of-treatment / Linoleic RBC End-of-treatment / Oleic RBC End-of-treatment / Palmitic RBC End-of-treatment / Ratio of AA/EPA RBC End-of-treatment / Ratio of total ω-3/total ω-6 RBC End-of-treatment / Stearic RBC End-of-treatment: week 12, mean; for Monounsaturated, proportion of total fatty acids, RBCs, End-of-treatment / Saturated, proportion of total fatty acids, RBCs, End-of-treatment / Total ω-3, proportion of total fatty acids, RBCs, End-of-treatment / Total ω-6, proportion of total fatty acids, RBCs, End-of-treatment: week 12, mean (SD)
Experimental: A multi-center, placebo-controlled, randomized, double-blind, 12-week study was performed to evaluate the efficacy and safety of >96% E-EPA in patients with fasting triglyceride levels≥200 mg/dl and <500 mg/dl despite statin therapy (the mean of two qualifying entry values needed to be ≥185 mg/dl and at least one of the values needed to be ≥200 mg/dl). The primary objective of the study was to determine the efficacy of >96% E-EPA 2 g daily and 4 g daily, compared to placebo, in lowering fasting TG levels in patients with high risk for cardiovascular disease and with fasting TG levels≥200 mg/dL and <500 mg/dL, despite treatment to LDL-C goal on statin therapy.
During the double-blind treatment period, patients were to take 2 capsules (>96% E-EPA or matching placebo) in the morning and 2 capsules in the evening for a total of 4 capsules per day. • Patients in the >96% E-EPA 2 g/day treatment group received 1>96% E-EPA 1 g capsule and 1 matching placebo capsule in the morning and in the evening. • Patients in the >96% E-EPA 4 g/day treatment group received 2>96% E-EPA 1 g capsules in the morning and evening. • Patients in the placebo group received 2 matching placebo capsules in the morning and evening.
Lipids were extracted from plasma and red blood cell (“RBC”) suspensions and converted into fatty acid methyl esters for analysis using a standard validated gas chromatography/flame ionization detection method. Fatty acid parameters were compared between EPA treatment groups and placebo using an ANCOVA model with treatment, gender, type of statin therapy, and presence of diabetes as factors, and the baseline parameter value as a covariate. LSMs, SEs, and 2-tailed 95% confidence intervals for each treatment group and for each comparison were determined.
The monounsaturated fatty acid group included myristoleic, palmitoleic, cis-vaccenic, oleic, gondoic/gadoleic, erucic and nervonic acids. The saturated fatty acid group included myristic, palmitic, stearic, arachidic, behenic and lignoceric acids. The “total ω-3” group included α-linolenic, stearidonic, eicosatrienoic, ω-3 arachidonic, eicosapentaenoic, ω-3 docosapentaenoic and docosahecaenoic acids. The “total ω-6” group included linoleic, γ-linolenic, eicosadienoic, dihomo-γ-linolenic, ω-6 arachidonic, adrenic, and ω-6 docosapentaenoic acids. The “total fatty acid” group represented the sum of the monounsaturated, saturated, total ω-3 and total ω-6 groups.

[1] = 2 g/day, baseline to week 12, LS mean (SE)
[2] = 4 g/day, baseline to week 12, LS mean

CC/C=C\C/C=C\C/C=C\C/C=C\C/C=C\CCCC(=O)OCC [IPE, all-cis eicosa-5,8,11,14,17-pentaenoic acid ethyl ester]
Monounsaturated, proportion of total fatty acids, RBCs, Placebo-adjusted percent change from baseline (2 g/day vs placebo): −0.7%
Saturated, proportion of total fatty acids, RBCs, Placebo-adjusted percent change from baseline (2 g/day vs placebo): 1.3%
Total ω-3, proportion of total fatty acids, RBCs, Placebo-adjusted percent change from baseline (2 g/day vs placebo): 50.0%
Total ω-6, proportion of total fatty acids, RBCs, Placebo-adjusted percent change from baseline (2 g/day vs placebo): −11.3%
AA RBC Placebo-adjusted percent change from baseline (2 g/day vs placebo): −11.6%
DHA RBC Placebo-adjusted percent change from baseline (2 g/day vs placebo): −5.4%
DPAn-3 RBC Placebo-adjusted percent change from baseline (2 g/day vs placebo): 74.9%
Linoleic RBC Placebo-adjusted percent change from baseline (2 g/day vs placebo): −2.1%
Oleic RBC Placebo-adjusted percent change from baseline (2 g/day vs placebo): 1.6%
Palmitic RBC Placebo-adjusted percent change from baseline (2 g/day vs placebo): 0.5%
Ratio of AA/EPA RBC Placebo-adjusted percent change from baseline (2 g/day vs placebo): −87.1%
Ratio of total ω-3/total ω-6 RBC Placebo-adjusted percent change from baseline (2 g/day vs placebo): 60.4%
Stearic RBC Placebo-adjusted percent change from baseline (2 g/day vs placebo): 1.6%
Monounsaturated, proportion of total fatty acids, RBCs, Change from baseline (2 g/day): −0.1 (0.2) mol %
Saturated, proportion of total fatty acids, RBCs, Change from baseline (2 g/day): −0.3 (0.3) mol %
Total ω-3, proportion of total fatty acids, RBCs, Change from baseline (2 g/day): 2.6 (0.2) mol %
Total ω-6, proportion of total fatty acids, RBCs, Change from baseline (2 g/day): −2.4 (0.4) mol %
AA RBC Change from baseline [1]: −20.0 (3.3)
DHA RBC Change from baseline [1]: −5.5 (0.9)
DPAn-3 RBC Change from baseline [1]: 21.2 (1.3)
Linoleic RBC Change from baseline [1]: −1.3 (3.5)
Oleic RBC Change from baseline [1]: 3.1 (2.8)
Palmitic RBC Change from baseline [1]: 4.9 (4.1)
Ratio of AA/EPA RBC Change from baseline [1]: −21.9 (0.8)
Ratio of total ω-3/total ω-6 RBC Change from baseline [1]: 0.1 (0.01)
Stearic RBC Change from baseline [1]: 3.9 (2.3)
AA RBC End-of-treatment (2 g/day): 173.0
DHA RBC End-of-treatment (2 g/day): 44.7
DPAn-3 RBC End-of-treatment (2 g/day): 52.2
Linoleic RBC End-of-treatment (2 g/day): 153.1
Oleic RBC End-of-treatment (2 g/day): 204.7
Palmitic RBC End-of-treatment (2 g/day): 321.1
Ratio of AA/EPA RBC End-of-treatment (2 g/day): 6.4
Ratio of total ω-3/total ω-6 RBC End-of-treatment (2 g/day): 0.3
Stearic RBC End-of-treatment (2 g/day): 178.7
Monounsaturated, proportion of total fatty acids, RBCs, End-of-treatment (2 g/day): 19.9 (1.1) mol %
Saturated, proportion of total fatty acids, RBCs, End-of-treatment (2 g/day): 43.5 (2.1) mol %
Total ω-3, proportion of total fatty acids, RBCs, End-of-treatment (2 g/day): 8.5 (1.5) mol %
Total ω-6, proportion of total fatty acids, RBCs, End-of-treatment (2 g/day): 28.1 (2.1) mol %
Monounsaturated, proportion of total fatty acids, RBCs, Placebo-adjusted percent change from baseline (4 g/day vs placebo): −2.7%
Saturated, proportion of total fatty acids, RBCs, Placebo-adjusted percent change from baseline (4 g/day vs placebo): 3.2%
Total ω-3, proportion of total fatty acids, RBCs, Placebo-adjusted percent change from baseline (4 g/day vs placebo): 89.1%
Total ω-6, proportion of total fatty acids, RBCs, Placebo-adjusted percent change from baseline (4 g/day vs placebo): −19.7%
AA RBC Placebo-adjusted percent change from baseline (4 g/day vs placebo): −20.3%
DHA RBC Placebo-adjusted percent change from baseline (4 g/day vs placebo): −6.6%
DPAn-3 RBC Placebo-adjusted percent change from baseline (4 g/day vs placebo): 122.4%
Linoleic RBC Placebo-adjusted percent change from baseline (4 g/day vs placebo): −11.1%
Oleic RBC Placebo-adjusted percent change from baseline (4 g/day vs placebo): −3.7%
Palmitic RBC Placebo-adjusted percent change from baseline (4 g/day vs placebo): −2.7%
Ratio of AA/EPA RBC Placebo-adjusted percent change from baseline (4 g/day vs placebo): −98.5%
Ratio of total ω-3/total ω-6 RBC Placebo-adjusted percent change from baseline (4 g/day vs placebo): 123.0%
Stearic RBC Placebo-adjusted percent change from baseline (4 g/day vs placebo): −1.3%
Monounsaturated, proportion of total fatty acids, RBCs, Change from baseline (4 g/day): −0.5 (0.2) mol %
Saturated, proportion of total fatty acids, RBCs, Change from baseline (4 g/day): 0.5 (0.3) mol %
Total ω-3, proportion of total fatty acids, RBCs, Change from baseline (4 g/day): 4.9 (0.2) mol %
Total ω-6, proportion of total fatty acids, RBCs, Change from baseline (4 g/day): −4.9 (0.4) mol %
AA RBC Change from baseline [2]: −37.5
DHA RBC Change from baseline [2]: −6.4
DPAn-3 RBC Change from baseline [2]: 33.6
Linoleic RBC Change from baseline [2]: −16.1
Oleic RBC Change from baseline [2]: −8.0
Palmitic RBC Change from baseline [2]: −6.3
Ratio of total ω-3/total ω-6 RBC Change from baseline [2]: 0.2
Stearic RBC Change from baseline [2]: −1.4
AA RBC End-of-treatment (4 g/day): 153.1
DHA RBC End-of-treatment (4 g/day): 39.0
DPAn-3 RBC End-of-treatment (4 g/day): 61.9
Linoleic RBC End-of-treatment (4 g/day): 132.7
Oleic RBC End-of-treatment (4 g/day): 188.8
Palmitic RBC End-of-treatment (4 g/day): 301.2
Ratio of AA/EPA RBC End-of-treatment (4 g/day): 3.6
Ratio of total ω-3/total ω-6 RBC End-of-treatment (4 g/day): 0.4
Stearic RBC End-of-treatment (4 g/day): 170.5
Monounsaturated, proportion of total fatty acids, RBCs, End-of-treatment (4 g/day): 19.8 (1.7) mol %
Saturated, proportion of total fatty acids, RBCs, End-of-treatment (4 g/day): 44.2 (3.0) mol %
Total ω-3, proportion of total fatty acids, RBCs, End-of-treatment (4 g/day): 10.2 (2.5) mol %
Total ω-6, proportion of total fatty acids, RBCs, End-of-treatment (4 g/day): 25.8 (3.2) mol %
